For data set [1] the following is noted: unmodified C60-fullerene; cited from earlier work.
For data set [2], the system named is heart muscle tissue (rat myocardium) under hypoxia. Type of data set: in vivo. The method, then: Same tests were also performed in inhalation hypoxia model specified below (FIG. 14-16).
The following in vivo experimental hypoxia models were employed:
(1) Medicinal hypoxia syndrome A (1-methylnicotineamide (MNA), 10-20 mg/kg i.v. once per 24 hrs); […] (2) Medicinal hypoxia syndrome B (DXR 60-80 mg/kg i.v. once per 24 hrs); (3) The oxygen depleted inhalation model (10-20 day long exposition of rats to the artificial gas mixture to breath with, 12-16% oxygen/84-88% nitrogen, v/v).
Male adult Wistar Albino Glaxo rats (180-220 gms) were used, 3-4 animals per each experimental point.

In data set [3] the test system is heart muscle mitochondria membranes. The data set can be described thus: Retention of the drug by heart muscle mitochondria membranes after a single i.v. injection. The class given is in vivo.
The nature of data set [4]: Cationite capacity. Type of data set: physicochemical.

For orientation: solubility means the dissolved amount per volume that the medium holds.

In brackets after ≈: the same amount, converted by molar mass.

`c12c3c4c5c1c1c6c7c2c2c8c3c3c9c4c4c%10c5c5c1c1c6c6c%11c7c2c2c7c8c3c3c8c9c4c4c9c%10c5c5c1c1c6c6c%11c2c2c7c3c3c8c4c4c9c5c1c1c6c2c3c41` [C60-fullerene]: the solubility in data set [1] was 1.3e-05 ng/mL (≈ 1.8e-05 nM).
Regarding “fullerene (C60)-2-(butadiene-1-yl)tetra(o-γ-aminobutyryl-o-phtalyl)ferroporphyrin [PMC16]”, the “protecting the heart muscle tissue from the damaging impact promoted by hypoxia” value in data set [2] (hypoxia of any sort, even at extra low doses) was “efficient”. In addition, the “safety of long term multiple administration of extra low doses” value in data set [2] (in vivo) was “totally safe”. Also, in data set [2] (long term multiple administration, extra low doses), the “effect in medicinal hypoxic cardiotoxicity cases (DXR, MNA)” value is “marked prophylactic and therapeutic effect”. Also, the “time the drug molecule is retained by heart muscle mitochondria membranes” value in data set [3] was “not less than a week”. For the same molecule, the cationite capacities in data set [4] is reported as 320-370 meqv/mmol.
